# According to US20070135499A1 (Aerie Pharmaceuticals, Inc., priority 2005, published 2007):
# What was measured:
# hGRK-2 = target: T1, hGRK-2 (Homo sapiens, UniProt P25098); experiment: luciferase-based (Kinase-Glo) biochemical kinase inhibition assay, hGRK-2; settings: luciferase assay, casein substrate, 10 μM ATP; read-out: GRK-2 inhibition, Ki class
# T1 sequence (P25098 1-689): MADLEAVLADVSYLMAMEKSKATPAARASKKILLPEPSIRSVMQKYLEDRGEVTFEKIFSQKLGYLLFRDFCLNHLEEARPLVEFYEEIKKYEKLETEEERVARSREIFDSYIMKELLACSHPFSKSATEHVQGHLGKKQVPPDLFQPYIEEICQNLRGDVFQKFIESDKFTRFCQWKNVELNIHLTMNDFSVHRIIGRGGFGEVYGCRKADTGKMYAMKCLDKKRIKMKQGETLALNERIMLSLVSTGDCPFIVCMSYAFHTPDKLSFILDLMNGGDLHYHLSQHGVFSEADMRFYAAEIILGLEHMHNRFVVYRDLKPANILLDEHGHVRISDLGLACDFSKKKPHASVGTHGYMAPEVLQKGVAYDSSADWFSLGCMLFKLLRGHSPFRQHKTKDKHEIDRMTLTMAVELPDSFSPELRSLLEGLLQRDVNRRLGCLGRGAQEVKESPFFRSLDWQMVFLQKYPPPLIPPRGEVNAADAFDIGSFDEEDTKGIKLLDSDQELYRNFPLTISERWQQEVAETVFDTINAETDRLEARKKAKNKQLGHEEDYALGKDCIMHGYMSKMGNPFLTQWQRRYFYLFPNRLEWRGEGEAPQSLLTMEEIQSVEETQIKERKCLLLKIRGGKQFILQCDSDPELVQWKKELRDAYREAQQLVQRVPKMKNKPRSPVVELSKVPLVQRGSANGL
# Outline: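 Final conditions: 50 nM hGRK2, 20 μM casein, 10 μM ATP and 50 μM test compound in 4.5% DMSO, in HEPES pH 7.5 buffer with MgCl2, orthovanadate, CHAPS, BSA and DTT. Incubation ran 90-120 min at room temperature, targeting 20-30% ATP consumption. Remaining ATP was read by luminescence with diluted Kinase-Glo containing 0.01% trypan blue.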
# GRK-3 = target: T2, GRK-3 (Homo sapiens, UniProt P35626); experiment: luciferase-based biochemical kinase inhibition assay, GRK-3; settings: same luciferase assay; read-out: GRK-3 inhibition, Ki class
# T2 sequence (P35626 1-688): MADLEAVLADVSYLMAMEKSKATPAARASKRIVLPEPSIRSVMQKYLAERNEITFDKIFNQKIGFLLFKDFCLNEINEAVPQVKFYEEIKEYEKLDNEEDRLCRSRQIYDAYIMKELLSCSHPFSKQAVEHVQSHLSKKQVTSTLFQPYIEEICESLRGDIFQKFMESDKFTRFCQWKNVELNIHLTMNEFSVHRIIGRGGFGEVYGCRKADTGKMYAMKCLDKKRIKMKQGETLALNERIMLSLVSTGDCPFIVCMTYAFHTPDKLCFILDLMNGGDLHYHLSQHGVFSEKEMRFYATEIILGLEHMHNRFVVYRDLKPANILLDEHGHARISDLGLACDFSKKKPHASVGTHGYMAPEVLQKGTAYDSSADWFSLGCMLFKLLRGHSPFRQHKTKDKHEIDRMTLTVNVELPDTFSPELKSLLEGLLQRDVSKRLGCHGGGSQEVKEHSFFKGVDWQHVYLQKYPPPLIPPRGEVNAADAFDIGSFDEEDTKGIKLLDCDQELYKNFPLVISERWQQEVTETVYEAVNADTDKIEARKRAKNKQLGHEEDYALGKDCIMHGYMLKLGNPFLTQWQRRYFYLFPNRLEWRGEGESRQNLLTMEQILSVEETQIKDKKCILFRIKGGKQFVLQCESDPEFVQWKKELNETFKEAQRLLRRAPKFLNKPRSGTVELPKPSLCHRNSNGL
# Procedure: The inhibition of G-protein-coupled receptor kinases including hGRK-2 was determined for the hydrazide compounds using a biochemical assay. The inhibition of GRK-3, GRK-5 and GRK-6 was also determined using the same assay for some of the hydrazide derivatives.
# (§1) The protein kinase inhibition was determined using a biochemical assay utilizing the light emission of a luciferase reaction. The luciferase-based assay operates on the following reaction principles: [drawing 10]
# (§2) An inhibitor of GRK-2 will increase in the amount of ATP in solution, as shown. Thus, an inhibitor of GRK-2 will drive the luciferase reaction to the right, resulting in more light emitted. The amount of light emitted is proportional to the inhibition resulting from the GRK-2 inhibitor. The luciferase-based assay was also used to test some of the hydrazides for the inhibition properties towards other kinases.
# GRK-5 = GRK-5 (Homo sapiens, UniProt P34947); experiment: luciferase-based biochemical kinase inhibition assay, GRK-5; settings: same luciferase assay; read-out: GRK-5 inhibition, Ki class
# Procedure: The inhibition of G-protein-coupled receptor kinases including hGRK-2 was determined for the hydrazide compounds using a biochemical assay. […] The inhibition of GRK-3, GRK-5 and GRK-6 was also determined using the same assay for some of the hydrazide derivatives.
# as §1, §2
# [1] = tested on: porcine trabecular meshwork (PTM) cells; experiment: Cell-based porcine trabecular meshwork (PTM) assay, actin-fiber length; design: key: +++: More active than control-; ++: As active as control; +: Less active than control; −: Inactive; settings: activity at 50 μM as compared to control
# Procedure: Cell-based porcine trabecular meshwork (PTM) assay.
# The anterior section of porcine eyes was harvested within 4 hours post-mortem. The iris and ciliary body were removed and trabecular meshwork cells were harvested by blunt dissection. Finely minced trabecular meshwork tissue was plated into collagen-coated 6-well plates in Medium-199 containing 20% fetal bovine serum (FBS). After two passages at confluence, cells were transferred to low-glucose DMEM containing 10% FBS. Cells were used between […].
# Cells were plated into fibronectin-coated, glass multiwell plates the day before compound testing under standard culture conditions. Compounds were added to cells in the presence of 1% FBS-containing DMEM and 1% DMSO. When compounds were incubated with the cells for the duration determined to be optimal, the media and compound is removed and cells fixed for 20 minutes in 3% methanol-free paraformaldehyde. Cells were rinsed twice with phosphate buffered saline (PBS) and cells are permeabilized with 0.5% Triton X-100 for two minutes. Following an additional two washes with PBS, F-actin was stained with Alexa-fluor 488-labelled phalloidin and nuclei are stained with DAPI.
# Data was reduced to the mean straight actin-fiber length and normalized to DMSO-treated control cells (100%) and 50 μM Y-27632 (0%). Y-27632 is a rho-kinase inhibitor known to result in the depolymerization of F-actin in these cells.
# The cellular assay described in Reference Example Two was used to test some of the foregoing Examples 1-101, the results of which are presented below. The results are provided in terms activity at 50 μM as compared to control
# GRK-5, sequence (P34947 whole entry, species assumed): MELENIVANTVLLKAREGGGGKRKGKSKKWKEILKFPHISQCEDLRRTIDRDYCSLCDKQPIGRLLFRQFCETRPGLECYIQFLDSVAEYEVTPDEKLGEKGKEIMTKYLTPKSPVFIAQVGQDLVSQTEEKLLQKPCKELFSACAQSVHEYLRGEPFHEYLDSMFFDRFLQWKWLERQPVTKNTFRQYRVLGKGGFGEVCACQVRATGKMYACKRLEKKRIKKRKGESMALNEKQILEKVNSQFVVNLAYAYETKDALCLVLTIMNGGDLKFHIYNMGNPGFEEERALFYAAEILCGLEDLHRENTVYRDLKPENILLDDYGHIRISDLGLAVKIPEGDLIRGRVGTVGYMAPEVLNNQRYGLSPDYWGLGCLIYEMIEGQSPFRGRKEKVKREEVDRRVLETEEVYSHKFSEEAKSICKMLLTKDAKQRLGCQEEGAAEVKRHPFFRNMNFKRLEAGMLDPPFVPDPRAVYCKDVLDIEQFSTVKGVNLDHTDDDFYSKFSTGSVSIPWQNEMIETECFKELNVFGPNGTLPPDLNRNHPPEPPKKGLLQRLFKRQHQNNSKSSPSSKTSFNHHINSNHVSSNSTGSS
Ki (hGRK-2) [nM],Ki (GRK-3) [nM],Ki (GRK-5) [nM],Compound,PTM Cell Assay Result [1]
100 to 1000,100 to 1000,> 10000,"CNC(=O)c1cccc(NCC(=O)N/N=C/c2ccncc2)c1 [Example 52, N-Methyl-3-{[1-pyridin-4-yl-meth-(E)-ylidene-hydrazinocarbonylmethyl]-amino}-benzamide]",–
100 to 1000,100 to 1000,> 10000,"C/C(=N\NC(=O)CNc1cccc(Oc2ccccc2)c1)c1ccncc1 [Example 89, (3-Phenoxy-phenylamino)-acetic acid [1-pyridin-4-yl-eth-(E)-ylidene]-hydrazide]",–
100 to 1000,100 to 1000,> 10000,"CSc1cccc(NCC(=O)N/N=C/c2ccncc2)c1 [Example 48, (3-Methylsulfanyl-phenylamino)-acetic acid [1-pyridin-4-yl-meth-(E)-ylidene]-hydrazide]",–
100 to 1000,10 to 100,–,"O=C(CNc1cccc(C(=O)Nc2ccccc2)c1)N/N=C/c1ccncc1 [Example 96, N-Phenyl-3-{[1-pyridin-4-yl-meth-(E)-ylidene-hydrazinocarbonylmethyl]-amino}-benzamide]",–
100 to 1000,100 to 1000,1000 to 10000,"O=C(CNc1cccc(OCc2ccccc2)c1)N/N=C/c1ccncc1 [Example 47, (3-Benzyloxy-phenylamino)-acetic acid [1-pyridin-4-yl-meth-(E)-ylidene]-hydrazide]",–
100 to 1000,100 to 1000,> 10000,"C/C(=N\NC(=O)CNc1cccc(OCc2ccccc2)c1)c1ccncc1 [Example 87, (3-Benzyloxy-phenylamino)-acetic acid [1-pyridin-4-yl-eth-(E)-ylidene]-hydrazide]",–
100 to 1000,10 to 100,1000 to 10000,"O=C(CNc1cccc(C(=O)Nc2ccccc2)c1)N/N=C/c1c(Cl)cncc1Cl [Example 97, 3-{[1-(3,5-Dichloro-pyridin-4-yl)-meth-(E)-ylidene-hydrazinocarbonylmethyl]-amino}-N-phenyl-benzamide]",–
100 to 1000,100 to 1000,> 10000,"C/C(=N\NC(=O)CNc1cccc(C(=O)Nc2ccccc2)c1)c1ccncc1 [Example 90, N-Phenyl-3-{[1-pyridin-4-yl-eth-(E)-ylidene-hydrazinocarbonylmethyl]-amino}-benzamide]",–
100 to 1000,1000 to 10000,> 10000,"NS(=O)(=O)c1cccc(NCC(=O)N/N=C/c2ccncc2)c1 [Example 63, 3-{[1-Pyridin-4-yl-meth-(E)-ylidene-hydrazinocarbonylmethyl]-amino}-benzenesulfonamide]",–

# The remaining lines, values behind:
Compound,Ki (hGRK-2) [nM],Ki (GRK-3) [nM],Ki (GRK-5) [nM],PTM Cell Assay Result [1]
COc1ccc(Oc2cccc(NCC(=O)N/N=C/c3ccncc3)c2)cc1,–,–,–,+
"NS(=O)(=O)c1cccc(NCC(=O)N/N=C/c2c(Cl)cncc2Cl)c1 [Example 22, 3-{[1-(3,5-Dichloro-pyridin-4-yl)-meth-(E)-ylidene-hydrazinocarbonylmethyl]-amino}-benzenesulfonamide]",100 to 1000,1000 to 10000,1000 to 10000,–
C/C(=N\NC(=O)CNc1cccc(C(=O)Nc2ccccc2)c1)c1ccncc1 [drawing 119],–,–,–,+
COc1cc(/C=N/NC(=O)CNc2cccc(Cl)c2)nc(OC)n1,–,–,–,+
"O=C(CNc1cccc(Cl)c1)N/N=C/c1ccncc1 [Example 37, (3-Chloro-phenylamino)-acetic acid [1-pyridin-4-yl-meth-(E)-ylidene]-hydrazide]",100 to 1000,1000 to 10000,> 10000,–
O=C(CNc1ccc(Oc2ccccc2)cc1)N/N=C/c1c(Cl)cncc1Cl,–,–,–,+
"CSc1cccc(NCC(=O)N/N=C/c2c(Cl)cncc2Cl)c1 [Example 10, (3-Methylsulfanyl-phenylamino)-acetic acid [1-(3,5-dichloro-pyridin-4-yl)-meth-(E)-ylidene]-hydrazide]",100 to 1000,100 to 1000,1000 to 10000,–
"O=C(CNc1cccc(Cl)c1)N/N=C/c1c(Cl)cncc1Cl [Example 1, (3-Chloro-phenylamino)-acetic acid [1-(3,5-dichloro-pyridin-4-yl)-meth-(E)-ylidene]-hydrazide]",1000 to 10000,1000 to 10000,1000 to 10000,–
CNC(=O)c1cccc(NCC(=O)N/N=C/c2c(Cl)cncc2Cl)c1 [drawing 118],–,–,–,+
O=C(CNc1cccc(C(=O)Nc2ccccc2)c1)N/N=C/c1ccncc1 [drawing 113],–,–,–,++
"CCOc1cccc(NCC(=O)N/N=C/c2c(Cl)cncc2Cl)c1 [Example 21, (3-Ethoxy-phenylamino)-acetic acid [1-(3,5-dichloro-pyridin-4-yl)-meth-(E)-ylidene]-hydrazide]",100 to 1000,> 10000,> 10000,–
O=C(CNc1cccc(C(=O)Nc2cccnc2)c1)N/N=C/c1ccncc1 [drawing 114],–,–,–,++
"O=C(CNc1cccc(F)c1)N/N=C/c1ccncc1 [Example 40, (3-Fluoro-phenylamino)-acetic acid [1-pyridin-4-yl-meth-(E)-ylidene]-hydrazide]",100 to 1000,1000 to 10000,> 10000,–
O=C(CNc1cccc(C(=O)Nc2ccccc2)c1)N/N=C/c1c(Cl)cncc1Cl [drawing 112],–,–,–,++
O=C(CNc1cccc(C(=O)NCCN2CCOCC2)c1)N/N=C/c1c(Cl)cncc1Cl [drawing 116],–,–,–,+
"O=C(CNc1cccc(F)c1)N/N=C/c1c(Cl)cncc1Cl [Example 4, (3-Fluoro-phenylamino)-acetic acid [1-(3,5-dichloro-pyridin-4-yl)-meth-(E)-ylidene]-hydrazide]",100 to 1000,1000 to 10000,1000 to 10000,–
